Experimental findings from US12606585B2, “Fluorinated hexoses” (Stichting Radboud Universiteit, priority 2020, dated 2026) are described below.

Common to all, as to type: cell-based
For test [1], the system named is THP-1 cells. As to the kind of experiment: Lectin staining for fucose expression inhibition, THP-1 cells. To be noted: 3 days, 0-512 μM compound, flow cytometry. The protocol: (§1) THP-1 cells (TIB-202, ATCC) and Jurkat cells (TIB-152, ATCC) were cultured in RPMI-1640 medium containing 2 mM Glutamine and 25 mM HEPES (Gibco™, Life Technologies), supplemented with 10% v/v heat-inactivated fetal bovine serum (FBS) (Gibco™, Life Technologies) and 1× antibiotic-antimycotic solution (100 units/mL of penicillin, 100 μg/mL of streptomycin, and 0.25 μg/mL Fungizone) (Gibco™, Life Technologies) and passaged every 3-4 day by seeding a fraction of 0.5-2 min cells of the culture per 10 ml medium. EL-4 cells (TIB-39, ATCC) were cultured in DMEM medium (Gibco™, Life Technologies), supplemented with 10% v/v heat-inactivated fetal bovine serum (FBS) (Gibco™, Life Technologies), 1× antibiotic-antimycotic solution (100 units/mL of penicillin, 100 μg/mL of streptomycin, and 0.25 μg/mL Fungizone) (Gibco™, Life Technologies) and 2 mM Glutamine (Gibco™, Life Technologies) and passaged every 2-4 days by seeding a fraction of 0.5-1 min cells of the culture per 10 ml medium. For passaging a T75 flask (Corning), medium was removed and the monolayer was washed with 10 ml PBS pH 7.2 without CaCl2) and MgCl2 (Gibco™, Life Technologies) before adding 3.5 ml 0.05% trypsin/EDTA solution (Gibco™ 5 Life Technologies) in PBS. Cells were incubated at rt for 30-45 s after which the trypsin/EDTA-solution was removed. Cells were incubated for an additional 2 min at 37° C., 5.0% CO2 and resuspended in cell culture medium. Cells were then seeded at ˜40.000 cells/cm^2 in new culture flasks. All cells were cultured at 37° C., 5% CO2 in a humidified incubator.
(§2) Protocol below was repeated until n>=3 for each compounds using cells at different passage numbers. Cells were cultured in medium containing different concentrations of unnatural sugar derivatives on either 24-wells plates (adherent cell lines; 80,000 cells per well) (Corning) or 96-wells plates (suspension cell lines; 13,000-20,000 cells per well) (Thermo Scientific). DMSO, at same dilution as the unnatural sugar derivative stock solutions, was used as a positive control for lectin staining; P-Fuc2F was used for all concentrations as negative control. Cells were incubated for three days at 37° C. and 5% CO2 in a humidified incubator. Cells were harvested and washed with 100 μl 1×CF-blocking buffer (Vector Laboratories Inc.) containing 1 mM CaCl2) and 1 mM MgCl2. The cells were then resuspended in 50 μl 0.5 μg/ml of 0.5 ng/ml biotinylated lectin in 1× carbo-free blocking buffer and incubated at 4-8° C. for 45-60 min. Cells were washed with 3×100 μl PBA (PBS containing 1% v/v FBS and 0.1% w/w sodium azide), incubated with 40 μl 1 μg/ml Streptavidin-phycoerythrin conjugate (Invitrogen, eBioscience) in PBA for 10-15 min at 4-8° C. Cells were then washed again with 3×100 μl PBA, resuspended in PBA and fluorescence was measured with a flow cytometer (Beckman & Dickinson FACS-Calibur). Each replicate for each condition with >10,000 gated events. Data was processed using FlowJo (FlowJo LLC). Percentage of lectin binding was obtained by normalizing the MFI values to the MFI values of the respective DMSO control.
(§3) Three cell lines (THP-1, Jurkat, EL4) were cultured for 3 days with 0-512 μM compound. The cells were stained with two fucose specific lectins (AAL & AOL) and analysed by flow cytometry, presented as mean percentage lectin binding normalized to control (n=3).
For orientation: A flow cytometer gives signals particle by particle.

In the next test the test system is Jurkat cells. As to the kind of experiment: Lectin staining for fucose expression inhibition, Jurkat cells. To be noted: 3 days, 0-512 μM compound, flow cytometry. As for the experimental part:
as §1, §2, §3

The test system of another test is EL4 cells. As to the kind of experiment: Lectin staining for fucose expression inhibition, EL4 cells. As to conditions: 3 days, 0-512 μM compound, flow cytometry. The protocol: as §1, §2, §3
Test [2] concerns THP-1 cells. As to the kind of experiment: Onset and recovery of inhibition. As to conditions: for effect on lectin binding (FIG. 5): AAL or AOL lectin. The protocol: Cells were cultured in medium containing different concentrations of unnatural sugar derivatives on 96-wells plates (suspension cell lines; 13,000-20,000 cells per well) (Thermo Scientific). DMSO, at same dilution as the unnatural sugar derivative stock solutions, was used as a positive control for lectin staining; P-Fuc2F was used for all concentrations as negative control. Cells were incubated for eight days at 37° C. and 5% CO2 in a humidified incubator. Medium was changed after three and six days of incubation with cell culture medium without unnatural sugar derivatives. Every day cells were harvested and washed with 100 μl 1× CF-blocking buffer (Vector Laboratories Inc.) containing 1 mM CaCl2) and 1 mM MgCl2. The cells were then resuspended in 50 μl 0.5 μg/ml of either 0.5 ng/ml biotinylated AAL, AOL, SNA, MAL-II, WGA, LCA, PSA, PNA, PHA-L or GSL-1 lectin in 1× carbo-free blocking buffer or with 50 μl of non-supplemented 1× carbo-free blocking buffer and incubated at 4-8° C. for 45-60 min. Cells were washed with 3×100 μl PBA (PBS containing 1% v/v FBS and 0.1% w/w sodium azide), incubated with 40 μl 1 μg/ml Streptavidin-phycoerythrin conjugate (Invitrogen, eBioscience) in PBA for 10-15 min at 4-8° C. Cells were then washed again with 3×100 μl PBA, resuspended in PBA and fluorescence was measured with a flow cytometer (Beckman & Dickinson FACS-Calibur). Each replicate for each condition with >10,000 gated events. Data was processed using FlowJo (FlowJo LLC). Percentage of lectin binding was obtained by normalizing the MFI values to the MFI values of the respective DMSO control.
The onset of inhibition and duration for recovery was evaluated on THP-1 cells with 100 and 10 μM compound using the AAL lectin (FIG. 5). At 100 μM concentration compounds 9 and 10 inhibit fucosylation after 1 day and to over 50% after 3 days. Fucosylation was fully recovered to normal 5 levels on day 6. […] Similar results were obtained using the AOL lectin.

The mark [3] stands for this setting: Homo sapiens, 72 h, AAL lectin, n=3, read-out: EC50 for fucose expression inhibition, THP-1 AAL.
Where [4] appears, read: Homo sapiens, 72 h, AOL lectin, n=3, read-out: EC50 for fucose expression inhibition, THP-1 AOL.
Setting [5] is: Homo sapiens, 72 h, AAL lectin, n=3, read-out: EC50 for fucose expression inhibition, Jurkat AAL.
Setting [6] is: Homo sapiens, 72 h, AOL lectin, n=3, read-out: EC50 for fucose expression inhibition, Jurkat AOL.
Where [7] appears, read: Mus musculus, 72 h, AAL lectin, n=3, read-out: EC50 for fucose expression inhibition, EL4 AAL.
[8] abbreviates: Mus musculus, 72 h, AOL lectin, n=3, read-out: EC50 for fucose expression inhibition, EL4 AOL.

Where two headings read alike, the source gives them in different places.

For orientation: EC50 means the concentration needed to bring the measured effect to its halfway point. As to `CC(=O)OCC1O[C@H](OP(=O)(OCCSC(C)=O)OCCSC(C)=O)C(OC(C)=O)C(OC(C)=O)[C@@H]1OC(C)=O` (stereo partly drawn) [P-D-Man-1P (6), Di-(S-acetyl-2-thioethyl)-(2,3,4,6-tetra-O-acetyl-α-D-mannopyranoside) phosphate], the EC50 in the test with THP-1 cells [1] (setting [3]), in the test on THP-1 cells [1] (setting [4]), in the test on Jurkat cells (setting [5]), in the test with Jurkat cells (setting [6]), in the test on EL4 cells (setting [7]) and in the test on EL4 cells (setting [8]) was above 500 µM in each case. Further, the “effect on lectin binding (FIG. 5)” value in the test with THP-1 cells [2] (100 μM) is on record as “no effect”.
Regarding `CC(=O)OC1C(OC(C)=O)[C@H](OC(C)=O)C(C)O[C@@H]1OP(=O)(OCCSC(C)=O)OCCSC(C)=O` (stereo partly drawn) [P-D-Rha-1P (7), Di-(S-acetyl-2-thioethyl)-(2,3,4-tri-O-acetyl-α-D-rhamnopyranoside) phosphate], the 50% effective concentration (EC50) was above 500 µM in the test on THP-1 cells [1] (setting [3]); 137 µM in the test on THP-1 cells [1] (setting [4]); above 500 µM in the test on Jurkat cells (setting [5]); 153 µM in the test with Jurkat cells (setting [6]); above 500 µM in the test with EL4 cells (setting [7]); above 500 µM in the test with EL4 cells (setting [8]).
On to `CC(=O)OC1C(OC(C)=O)[C@H](OC(C)=O)C(CF)O[C@@H]1OP(=O)(OCCSC(C)=O)OCCSC(C)=O` (stereo partly drawn) [P-D-Rha6F-1P (8), Di-(S-acetyl-2-thioethyl)-(2,3,4-tri-O-acetyl-6-fluoro-α-D-rhamnopyranoside) phosphate], for which the 50% effective concentration (EC50) in the test on THP-1 cells [1] (setting [3]) was 267 µM; in the test with THP-1 cells [1] (setting [4]), 84.4 µM; in the test with Jurkat cells (setting [5]), 174 µM; with Jurkat cells (setting [6]), 345 µM; in the test with EL4 cells (setting [7]) it was above 500 µM; in the test on EL4 cells (setting [8]) it was above 500 µM.
With `CC(=O)OC1O[C@@H](C)[C@@H](OC(C)=O)[C@@H](OC(C)=O)[C@@H]1F` (stereo partly drawn) [P-Fuc2Feq, reference compound], the EC50 with THP-1 cells [1] (AAL lectin, n=3, read-out: EC50 for fucose expression inhibition, THP-1 AAL) was 44.9 µM; in the test with THP-1 cells [1] (AOL lectin, n=3, read-out: EC50 for fucose expression inhibition, THP-1 AOL) it was 30.7 µM; with Jurkat cells (AAL lectin, n=3, read-out: EC50 for fucose expression inhibition, Jurkat AAL), 115 µM; in the test on Jurkat cells (AOL lectin, n=3, read-out: EC50 for fucose expression inhibition, Jurkat AOL) it was 121 µM; with EL4 cells (AAL lectin, n=3, read-out: EC50 for fucose expression inhibition, EL4 AAL) it was above 500 µM; with EL4 cells (AOL lectin, n=3, read-out: EC50 for fucose expression inhibition, EL4 AOL), above 500 µM. Moreover, the “inhibition of fucosylation at 10 μM” value with THP-1 cells [2] (10 μM, AAL lectin) is given as “no inhibition”. For the same compound, the “effect on lectin binding (FIG. 5)” value in the test with THP-1 cells [2] (10 μM) was “no longer discernible”.
